Reference: patent publication US12410160B2 (Gilead Sciences, Inc., priority 2021, dated 2025)
Read-outs that look alike come from different tables or passages of the source.

Tests used:
human KHK-C = human KHK-C (Homo sapiens (Human), UniProt P50053); assay: KHK Biochemical Assay (IC50), ADP-Glo, KHK-C; settings: average of at least two separate assays
Procedure, shortened: (§1)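 ADP-Glo luminescence measured ADP made over a 4 h room-temperature reaction of ATP plus fructose, started after 30 min compound–enzyme pre-incubation. Buffer: 50 mM Hepes pH 7.4, 140 mM KCl, 5 mM MgCl2, 0.01% Triton-X. Enzyme was His-tagged, BL21 (DE3)-expressed, Ni-NTA-purified; compounds in 1:3 DMSO dilution series.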

[1] = biological target: KHK-C expressed in NRK-52E cells (Homo sapiens (Human), UniProt P50053); assay: KHK-C Cell-based Assay (EC50), NRK CTG, fructose-mediated ATP-depletion
human KHK-A = human KHK-A (Homo sapiens (Human), UniProt P50053); assay: KHK Biochemical Assay (IC50), ADP-Glo, KHK-A; settings: average of at least two separate assays
Procedure, shortened: as §1

Sequence of human KHK-C (P50053 whole entry): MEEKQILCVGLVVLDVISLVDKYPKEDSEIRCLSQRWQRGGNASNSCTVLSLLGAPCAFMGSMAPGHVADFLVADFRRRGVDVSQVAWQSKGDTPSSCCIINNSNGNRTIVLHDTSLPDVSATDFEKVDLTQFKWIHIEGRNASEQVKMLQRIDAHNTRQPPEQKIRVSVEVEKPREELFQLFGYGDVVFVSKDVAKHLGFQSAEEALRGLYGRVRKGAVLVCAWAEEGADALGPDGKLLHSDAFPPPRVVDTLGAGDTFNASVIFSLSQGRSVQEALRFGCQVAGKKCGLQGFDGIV
Sequence of KHK-C expressed in NRK-52E cells (P50053 whole entry): as above
Sequence of human KHK-A (P50053 other isoform, or with tags, fused parts or gaps): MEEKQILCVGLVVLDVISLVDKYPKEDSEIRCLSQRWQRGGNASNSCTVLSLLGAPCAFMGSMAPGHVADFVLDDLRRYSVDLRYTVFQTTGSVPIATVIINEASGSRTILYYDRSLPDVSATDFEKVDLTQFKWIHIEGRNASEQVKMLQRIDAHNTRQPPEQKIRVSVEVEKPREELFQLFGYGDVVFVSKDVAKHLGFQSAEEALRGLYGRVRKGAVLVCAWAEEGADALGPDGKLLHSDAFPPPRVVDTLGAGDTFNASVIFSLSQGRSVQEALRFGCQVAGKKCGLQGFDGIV

Compound `CC(=O)N1C[C@H](C(=O)O)[C@@H](c2cccc(-c3nc(N4CC[C@@H]4C)nc4c3CCC4)c2)C1` (mixture of isomers) [Example 145, (3R,4S)-1-acetyl-4-(3-(2-((S)-2-methylazetidin-1-yl)-6,7-dihydro-5H-cyclopenta[d]pyrimidin-4-yl)phenyl)pyrrolidine-3-carboxylic acid] has an IC50 (human KHK-C; ADP-Glo) of 125 nM, an EC50 [1] greater than 5000 nM and an IC50 (human KHK-A; ADP-Glo) of 83.7 nM.
With `C[C@H]1CCN1c1nc2c(c(-c3ccc4c(c3)[C@]3(C[C@H]3C#N)C(=O)N4)n1)CCC2` (mixture of isomers) [Example 410, rac-(1R,2R)-5′-(2-((S)-2-methylazetidin-1-yl)-6,7-dihydro-5H-cyclopenta[d]pyrimidin-4-yl)-2′-oxospiro[cyclopropane-1,3′-indoline]-2-carbonitrile] the IC50 (human KHK-C) was 40.8 nM, the EC50 [1] was 47.5 nM and the IC50 (human KHK-A) was 37.6 nM.
In the case of `C[C@H]1CCN1c1nc2c(c(-c3ccc4c(c3)[C@]3(C[C@@H]3C#N)C(=O)N4)n1)CCC2` (mixture of isomers) [Example 411, rac-(1R,2S)-5′-(2-((S)-2-methylazetidin-1-yl)-6,7-dihydro-5H-cyclopenta[d]pyrimidin-4-yl)-2′-oxospiro[cyclopropane-1,3′-indoline]-2-carbonitrile], the IC50 (human KHK-C) is reported as 117 nM, the EC50 [1] is reported as 473 nM and the IC50 (human KHK-A) is reported as 66.3 nM.
`C[C@H]1CCN1c1nc2c(c(-c3ccc4c(c3)[C@]3(C[C@H]3C(N)=O)C(=O)N4)n1)CCC2` (mixture of isomers) [Example 412, rac-(1R,2R)-5′-(2-((S)-2-methylazetidin-1-yl)-6,7-dihydro-5H-cyclopenta[d]pyrimidin-4-yl)-2′-oxospiro[cyclopropane-1,3′-indoline]-2-carboxamide] gave an IC50 (human KHK-C) of 29.2 nM, an EC50 [1] of 406 nM and an IC50 (human KHK-A) of 57.3 nM.
For `C[C@H]1CCN1c1nc2c(c(-c3ccc4c(c3)[C@]3(C[C@@H]3C(N)=O)C(=O)N4)n1)CCC2` (mixture of isomers) [Example 413, rac-(1R,2S)-5′-(2-((S)-2-methylazetidin-1-yl)-6,7-dihydro-5H-cyclopenta[d]pyrimidin-4-yl)-2′-oxospiro[cyclopropane-1,3′-indoline]-2-carboxamide], the IC50 (human KHK-C) was 74.4 nM, the EC50 [1] was 750 nM and the IC50 (human KHK-A) was 65.4 nM.
`COC(=O)[C@@H]1C[C@@]12C(=O)Nc1ccc(-c3nc(N4CC[C@@H]4C)nc4c3CCC4)cc12` (racemic) [Example 406, rac-methyl (1R,2R)-5′-(2-((S)-2-methylazetidin-1-yl)-6,7-dihydro-5H-cyclopenta[d]pyrimidin-4-yl)-2′-oxospiro[cyclopropane-1,3′-indoline]-2-carboxylate] was tested, and the IC50 (human KHK-C) was 1040 nM, the EC50 [1] was 397 nM and the IC50 (human KHK-A) was 841 nM.
For `COC(=O)[C@H]1C[C@@]12C(=O)Nc1ccc(-c3nc(N4CC[C@@H]4C)nc4c3CCC4)cc12` (racemic) [Example 407, rac-methyl (1R,2S)-5′-(2-((S)-2-methylazetidin-1-yl)-6,7-dihydro-5H-cyclopenta[d]pyrimidin-4-yl)-2′-oxospiro[cyclopropane-1,3′-indoline]-2-carboxylate], the IC50 (human KHK-C) was 229 nM, the EC50 [1] was 506 nM and the IC50 (human KHK-A) was 235 nM.
Compound `C[C@H]1CCN1c1nc2c(c(-c3ccc4c(c3)[C@]3(C[C@H]3C(=O)O)C(=O)N4)n1)CCC2` (racemic) [Example 408, rac-(1R,2R)-5′-(24(8)-2-methylazetidin-1-yl)-6,7-dihydro-5H-cyclopenta[d]pyrimidin-4-yl)-2′-oxospiro[cyclopropane-1,3′-indoline]-2-carboxylic acid] has an IC50 (human KHK-C) of 100 nM, an EC50 [1] greater than 5000 nM and an IC50 (human KHK-A) of 158 nM.
Work on `C[C@H]1CCN1c1nc2c(c(-c3ccc4c(c3)[C@]3(C[C@@H]3C(=O)O)C(=O)N4)n1)CCC2` (racemic) [Example 409, rac-(1R,28)-5′-(24(8)-2-methylazetidin-1-yl)-6,7-dihydro-5H-cyclopenta[d]pyrimidin-4-yl)-2′-oxospiro[cyclopropane-1,3′-indoline]-2-carboxylic acid] yielded an IC50 (human KHK-C) of 34.3 nM, an EC50 [1] greater than 5000 nM and an IC50 (human KHK-A) of 41 nM.
For `C[C@H]1CCN1c1nc2c(c(-c3ccc4c(c3)C[C@@H]3[C@@H](C(N)=O)[C@H]43)n1)CCC2` (relative stereo) [Example 137, (1R,1aR*,6aS*)-4-(2-((S)-2-methylazetidin-1-yl)-6,7-dihydro-5H-cyclopenta[d]pyrimidin-4-yl)-1,1a,6,6a-tetrahydrocyclopropa[a]indene-1-carboxamide], the IC50 (human KHK-C; ADP-Glo) was 90.3 nM, the EC50 [1] was 100 nM and the IC50 (human KHK-A; ADP-Glo) was 216 nM.
Compound `C[C@H]1CCN1c1nc2c(c(-c3ccc4c(c3)C[C@@H]3[C@H](C(N)=O)[C@H]43)n1)CCC2` (relative stereo) [Example 138, (1S,1aR*,6aS*)-4-(2-((S)-2-methylazetidin-1-yl)-6,7-dihydro-5H-cyclopenta[d]pyrimidin-4-yl)-1,1a,6,6a-tetrahydrocyclopropa[a]indene-1-carboxamide] has an IC50 (human KHK-C; ADP-Glo) of 220 nM, an EC50 [1] of 1800 nM and an IC50 (human KHK-A; ADP-Glo) of 294 nM.
Compound `CC(=O)N1C[C@H](C(N)=O)[C@@H](c2cccc(-c3nc(N4CC[C@@H]4C)nc4c3CCC4)c2)C1` (relative stereo) [Example 146, (3R*,4S*)-1-acetyl-4-(3-(2-((S)-2-methylazetidin-1-yl)-6,7-dihydro-5H-cyclopenta[d]pyrimidin-4-yl)phenyl)pyrrolidine-3-carboxamide] has an IC50 (human KHK-C; ADP-Glo) of 116 nM, an EC50 [1] of 423 nM and an IC50 (human KHK-A; ADP-Glo) of 118 nM.
`C[C@H]1[C@H](C(N)=O)CN1c1nc2c(c(-c3ccc(C(N)=O)cc3)n1)CCC2` (relative stereo) [Example 266, (rac)-(2S*,3R*)-1-(4-(4-carbamoylphenyl)-6,7-dihydro-5H-cyclopenta[d]pyrimidin-2-yl)-2-methylazetidine-3-carboxamide] showed an IC50 (human KHK-C; ADP-Glo) greater than 5000 nM, an EC50 [1] greater than 5000 nM and an IC50 (human KHK-A; ADP-Glo) greater than 5000 nM.
Work on `C[C@H]1CCN1c1nc2c(c(-c3cccc([C@H]4C[C@@H]4c4nn[nH]n4)c3)n1)CCC2` (relative stereo) [Example 270, 4-(3-((1S*,2S*)-2-(2H-tetrazol-5-yl)cyclopropyl)phenyl)-2-((S)-2-methylazetidin-1-yl)-6,7-dihydro-5H-cyclopenta[d]pyrimidine] yielded an IC50 (human KHK-C; ADP-Glo) of 44.7 nM, an EC50 [1] of 2140 nM and an IC50 (human KHK-A; ADP-Glo) of 62.3 nM.
For `C[C@H]1CCN1c1nc2c(c(-c3cccc([C@@H]4C[C@H]4C(=O)O)c3)n1)CCC2` (single isomer, unassigned) [Example 90], the IC50 (human KHK-C; ADP-Glo) was 11.2 nM, the EC50 [1] was 121 nM and the IC50 (human KHK-A; ADP-Glo) was 8.9 nM.
`C[C@H]1[C@H](O)CN1c1nc(-c2ccc(OC3CC3)c([S@@](C)(=N)=O)c2)c2c(n1)C(F)(F)CC2` (single isomer, unassigned) [Example 542] was tested, and the IC50 (human KHK-C) was 0.6 nM, the EC50 [1] was 5.7 nM and the IC50 (human KHK-A) was 0.5 nM.
`C[C@H]1CCN1c1nc(-c2cc(F)c3c(c2)OCCNC3=O)c2c(n1)C(F)(F)CC2` [Example 747, 8-[7,7-difluoro-2-[(2S)-2-methylazetidin-1-yl]-5,6-dihydrocyclopenta[d]pyrimidin-4-yl]-6-fluoro-3,4-dihydro-2H-1,4-benzoxazepin-5-one] gave an IC50 (human KHK-C) of 6.1 nM and an EC50 [1] of 15.1 nM.
With `C[C@@H](NS(C)(=O)=O)c1ccc(-c2nc(N3CC[C@@H]3C)nc3c2CCC3(F)F)cc1` [Example 748, N-[(1R)-1-[4-[7,7-difluoro-2-[(2S)-2-methylazetidin-1-yl]-5,6-dihydrocyclopenta[d]pyrimidin-4-yl]phenyl]ethyl]methanesulfonamide] the IC50 (human KHK-C) was 23.2 nM and the EC50 [1] was 85.9 nM.
For `C[C@@H](NS(C)(=O)=O)c1cccc(-c2nc(N3CC[C@@H]3C)nc3c2CCC3(F)F)c1` [Example 749, N-[(1R)-1-[3-[7,7-difluoro-2-[(2S)-2-methylazetidin-1-yl]-5,6-dihydrocyclopenta[d]pyrimidin-4-yl]phenyl]ethyl]methanesulfonamide], the IC50 (human KHK-C) was 18.8 nM and the EC50 [1] was 69.7 nM.
`C[C@H](NS(C)(=O)=O)c1ccc(-c2nc(N3CC[C@@H]3C)nc3c2CCC3(F)F)cc1` [Example 750, N-[(1S)-1-[4-[7,7-difluoro-2-[(2S)-2-methylazetidin-1-yl]-5,6-dihydrocyclopenta[d]pyrimidin-4-yl]phenyl]ethyl]methanesulfonamide] was tested, and the IC50 (human KHK-C) was 9 nM and the EC50 [1] was 14.8 nM.
Compound `C[C@H](NS(C)(=O)=O)c1cccc(-c2nc(N3CC[C@@H]3C)nc3c2CCC3(F)F)c1` [Example 751, N-[(1S)-1-[3-[7,7-difluoro-2-[(2S)-2-methylazetidin-1-yl]-5,6-dihydrocyclopenta[d]pyrimidin-4-yl]phenyl]ethyl]methanesulfonamide] has an IC50 (human KHK-C) of 10.8 nM and an EC50 [1] of 17.9 nM.
`C[C@H]1CCN1c1nc2c(c(-c3ccc(C(N)=O)cn3)n1)CCC2` [Example 752, 6-[2-[(2S)-2-methylazetidin-1-yl]-6,7-dihydro-5H-cyclopenta[d]pyrimidin-4-yl]pyridine-3-carboxamide] gave an IC50 (human KHK-C) of 79.2 nM and an EC50 [1] of 223 nM.
Compound `C[C@H]1CCN1c1nc2c(c(-c3ccc4c(c3)NCCNC4=O)n1)CCC2` [Example 753, 8-[2-[(2S)-2-methylazetidin-1-yl]-6,7-dihydro-5H-cyclopenta[d]pyrimidin-4-yl]-1,2,3,4-tetrahydro-1,4-benzodiazepin-5-one] has an IC50 (human KHK-C) of 10.7 nM and an EC50 [1] of 33.1 nM.
For `C[C@H]1CCN1c1nc(-c2ccc3c(c2)OCCC3NS(C)(=O)=O)c2c(n1)C(F)(F)CC2` (stereo partly drawn) [Example 759, N-[7-[7,7-difluoro-2-[(2S)-2-methylazetidin-1-yl]-5,6-dihydrocyclopenta[d]pyrimidin-4-yl]chroman-4-yl]methanesulfonamide], the IC50 (human KHK-C) was 2.3 nM and the EC50 [1] was 6.9 nM.
“(1S)-1-[4-[7,7-difluoro-2-[(2S)-2-methylazetidin-1-yl]-5,6-dihydrocyclopenta[d]pyrimidin-4-yl]phenyl]-2,2-difluoro-ethanamine [Example 652]” was tested, and the IC50 (human KHK-C) was 23.6 nM and the EC50 ([1]; read-out: NRK CTG EC50, NRK-52E cells, Cell-Titer Glo, 25 mM fructose) was 193 nM.
